Test results published in ChEMBL document CHEMBL1153790, “Scoring function for DNA-drug docking of anticancer and antiparasitic compounds based on spectral moments of 2D lattice graphs for molecular dynamics trajectories” (2009).

experiment: Antiproliferative activity against mouse EAC cells assessed as ratio of ID50 of compound to ID50 of 8-methoxypsoralen; type: functional, Ehrlich

First: Cc1c(C)c2cc3c(C)coc3nc2oc1=O
Second: Cc1coc2nc3oc(=O)cc(C)c3cc12
The Ratio of the first is lower: 0.67 for the first, 0.68 for the second.

Compared with Cc1cc2c(ccc3c(C)cc(=O)oc32)o1, Cc1cc(=O)oc2c1ccc1occ(C)c12 is higher in Ratio: 1.27 for the first, 5.75 for the second.

Compared with Cc1oc2nc3oc(=O)c(C)c(C)c3cc2c1C, Cc1oc2nc3oc(=O)cc(C)c3cc2c1C is higher in Ratio: 1.83 for the first, 3.66 for the second.

Going from COCc1c(C)oc2ccc3c(C)cc(=O)oc3c12 to Cc1cc2occ(C)c2c2oc(=O)ccc12, the Ratio rises from 0.6 to 5.3.

First: Cc1oc2cc3oc(=O)c(C)cc3cc2c1C
Second: Cc1cc2cc3c(C)coc3cc2oc1=O
The Ratio of the first is higher: 1.79 for the first, 1.01 for the second.

First: Cc1oc2c(C)cc3c(C)cc(=O)[nH]c3c2c1C
Second: Cc1cc(=O)[nH]c2c1cc(C)c1oc(CO)c(C)c12
The Ratio of the first is higher: 9.25 for the first, 1.07 for the second.

Compared with Cc1coc2nc3oc(=O)ccc3cc12, Cc1oc2nc3oc(=O)ccc3cc2c1C is higher in Ratio: 0.13 for the first, 0.18 for the second.

First: Cc1cc2c(ccc3ccc(=O)oc32)o1
Second: Cc1coc2ccc3ccc(=O)oc3c12
The Ratio of the first is lower: 0.8 for the first, 0.81 for the second.

Compared with Cc1cc2c(o1)c(C)cc1c(CO)cc(=O)n(C)c12, COCc1cc(=O)n(C)c2c1cc(C)c1oc(C)cc12 is lower in Ratio: 5.6 for the first, 2.09 for the second.

Going from O=c1ccc2ccc3occc3c2o1 [ANGELICIN] to Cc1cc2ccc3occc3c2oc1=O, the Ratio falls from 0.55 to 0.2.

First: Cc1cc(=O)oc2c1ccc1occc12
Second: Cc1c(C)c2ccc3occc3c2oc1=O
The Ratio of the first is higher: 0.55 for the first, 0.35 for the second.

Going from Cc1cc(=O)oc2nc3occc3cc12 to Cc1coc2nc3oc(=O)ccc3c(C)c12, the Ratio rises from 0.14 to 0.97.

First: O=C(c1cc2ccc3occc3c2oc1=O)N1CCOCC1
Second: NC(=O)c1cc2ccc3occc3c2oc1=O
The Ratio of the first is higher: 0.06 for the first, 0.05 for the second.

First: O=c1ccc2cc3ccoc3cc2o1 [PSORALEN]
Second: COc1c2ccoc2cc2oc(=O)ccc12 [BERGAPTEN]
The Ratio of the first is higher: 1.52 for the first, 0.66 for the second.

First: Cc1cc2cc3c(C)cc(=O)oc3c(C)c2o1 [TRIOXSALEN]
Second: Cc1cc2cc3c(C)coc3c(C)c2oc1=O
The Ratio of the first is higher: 27.6 for the first, 1.34 for the second.

Going from COC(=O)c1cc2ccc3occc3c2oc1=O to CCOC(=O)c1cc2ccc3occc3c2oc1=O, the Ratio rises from 0.2 to 0.4.

Compared with Cc1cc2c(o1)c(C)cc1c(CO)cc(=O)[nH]c12, Cc1cc2c(o1)c(C)cc1c(C)cc(=O)[nH]c12 is higher in Ratio: 0.66 for the first, 1.36 for the second.

First: Cc1c(C)c2cc3c(C)coc3cc2oc1=O
Second: Cc1c(C)c2ccc3occ(C)c3c2oc1=O
The Ratio of the first is higher: 0.34 for the first, 0.03 for the second.

First: Cc1oc2ccc3ccc(=O)oc3c2c1C
Second: Cc1oc2cc3oc(=O)ccc3cc2c1C
The Ratio of the first is higher: 1.47 for the first, 1.26 for the second.

Compared with Cc1oc2nc3oc(=O)ccc3c(C)c2c1C, Cc1oc2ccc3c(C)cc(=O)[nH]c3c2c1C is higher in Ratio: 0.25 for the first, 2.59 for the second.

First: Cc1cc(=O)[nH]c2c1cc(C)c1occ(C)c12
Second: Cc1cc(=O)[nH]c2c1ccc1occ(C)c12
The Ratio of the first is higher: 4.62 for the first, 0.48 for the second.

First: Cc1coc2cc3oc(=O)cc(CO)c3cc12
Second: Cc1cc(=O)oc2c1c(C)cc1occ(C)c12
The Ratio of the first is lower: 2.32 for the first, 5.78 for the second.

CN(C)C(=O)c1cc2ccc3occc3c2oc1=O and O=C(O)c1cc2ccc3occc3c2oc1=O are the same in Ratio: 0.07 for the first, 0.07 for the second.

First: COc1c2oc(=O)c(C)cc2cc2c(C)coc12
Second: COc1c2occc2cc2ccc(=O)oc12 [METHOXSALEN]
The Ratio of the first is lower: 0.89 for the first, 1 for the second.

For CCOCCNC(=O)c1cc2ccc3occc3c2oc1=O, the Ratio was under 0.01.
In the case of CC(=O)c1cc2ccc3occc3c2oc1=O, the Ratio was under 0.01.
For O=C(NCCO)c1cc2ccc3occc3c2oc1=O, the Ratio was under 0.01.
In the case of CCN(CC)C(=O)c1cc2ccc3occc3c2oc1=O, the Ratio was under 0.01.
For CN(C)CCNC(=O)c1cc2ccc3occc3c2oc1=O, the Ratio was under 0.01.
In the case of O=C(c1ccccc1)c1cc2ccc3occc3c2oc1=O, the Ratio was under 0.01.
CN1CCN(C(=O)c2cc3ccc4occc4c3oc2=O)CC1 showed a Ratio of under 0.01.
O=C(c1cc2ccc3occc3c2oc1=O)N(CCO)CCO showed a Ratio of under 0.01.
